Assay results published in patent EP1159261B1, “ANTIZYME MODULATORS AND THEIR USE” (ORIDIGM CORPORATION, priority 1999, dated 2000).
“Also recorded” adds a separate entry of the source. Like-named read-outs stand apart in the source and are kept apart here. Values belong to the molecule of their own block, whether it stands above or below them.

What was measured:
human antizyme sequence [1] = test: in vitro antizyme dual luciferase frameshifting assay (in vitro translation in reticulocyte lysate); format: biochemical; settings: for In vitro antizyme induction / antizyme induction: result in words; for antizyme induction: sentence does not say in vitro or in vivo, context is the in vitro assay
Text: As one skilled in the art would appreciate, there are a multitude of means to test the agmatine and polyamine analogs of the invention for the ability to induce a frameshift. […] This assay allows one to measure the efficiency of translational frameshifting on the human antizyme sequence. Briefly, two variations of the human antizyme sequence were cloned between the renilla (5') and firefly (3') luciferase reporter genes in pRL-SV40 (Promega) plasmids. One plasmid contained the wild type antizyme sequence which requires a +1 frameshift for complete translation, the other plasmid contained modified, in-frame antizyme (control) sequences. These plasmids are utilized to transiently or stably transfect human cell lines with either the wild type or in-frame antizyme sequence-containing plasmids. Renilla and firefly luciferase activity in each assay (with cells containing one of the two plasmids) is measured to account for polymerase fall-off or translational efficiency in the presence or absence of the agmatine and polyamine analogs of the invention. That ratio is used to normalize the firefly luciferase activity seen in the wild type sequence, compared to the in-frame control sequence.
(§1) In vitro assays of the effect of agmatine and polyamine analogs on antizyme frameshifting were performed as follows. Linearized plasmids containing the wild type and in-frame antizyme sequence were transcribed in vitro, followed by in vitro translation in reticulocyte lysate, with and without agmatine and polyamine analogs. Luminescence was measured using the Dual-Luciferase™ reporter assay (Promega).
This assay allows one to measure the efficiency of translational frameshifting on the human antizyme sequence. Briefly, two variations of the human antizyme sequence were cloned between the renilla (5') and firefly (3') luciferase reporter genes in pRL-SV40 (Promega) plasmids. One plasmid contained the wild type antizyme sequence which requires a +1 frameshift for complete translation, the other plasmid contained modified, in-frame antizyme (control) sequences. These plasmids are utilized to transiently or stably transfect human cell lines with either the wild type or in-frame antizyme sequence-containing plasmids. Renilla and firefly luciferase activity in each assay (with cells containing one of the two plasmids) is measured to account for polymerase fall-off or translational efficiency in the presence or absence of the analogs of the invention. That ratio is used to normalize the firefly luciferase activity seen in the wild type sequence, compared to the in-frame control sequence.
as §1, with “agmatine” for “agmatine and polyamine”, “agmatine analogs .” for “agmatine and polyamine analogs.”

[2] = system: breast carcinoma cell line, MDA-MB-231; test: cell growth inhibition, seven days, MTS/PMS dye assay; format: cell-based; settings: for IC50: Homo sapiens
Experimental: The IC50 values in the above Table as well as Tables 1B and 1C below were determined with the breast carcinoma cell line, MDA-MB-231.
Cells were plated in 96-well plates such that they would be in log growth for the duration of the assay. The day after plating, drugs were added to the cells and they were grown for seven days. Cell growth was measured by MTS/PMS dye assay (Promega). The assay was done in the presence of 1 mM aminoguanidine to inhibit amine oxidases from the serum in the culture media and 1 µM spermidine to insure that any growth inhibition was not the result of depletion of external polyamines from the media. The assay was also performed over seven days because this allows for the greatest dynamic range in cell growth due to the mechanism of concomitant inhibition of polyamine biosynthesis and transport. Cells need to divide several times before the intracellular level of polyamines begin to decrease to growth inhibitory levels.
(§2) For example, compounds ORI 1041 and ORI 1093 were evaluated as polyamine transport inhibitors and for growth inhibition in a cell based (MDA-MB-231 breast cancer cell line) assay with and without DFMO.

polyamine transporter = test: polyamine transport assay (^3H-spermidine uptake into cells); format: cell-based; settings: result in words
Experimental: Cells in log growth are pre-incubated with an agmatine analog followed by addition of ^3H-spermidine. […] The cells were then washed three times with cold PBS, lysed with 0.1% SDS, and the amount of polyamine incorporation into the cells was determined by scintillation counting of the cell lysates. To determine a Ki, four substrate concentrations and five inhibitor concentrations and a control were tested. The Ki was determined by a non-linear fit to the Michaelis-Menten equation.
as §2

human antizyme sequence [3] = test: in vivo (cellular) antizyme dual luciferase frameshifting assay in transfected cell lines; format: cell-based; settings: for In vivo (cellular) antizyme induction: result in words
Experimental: As one skilled in the art would appreciate, there are a multitude of means to test the agmatine and polyamine analogs of the invention for the ability to induce a frameshift. For example, Satriano et al. (J. Biol. Chem., 273:15313-15316 (1998)) and the references cited therein utilized an in vitro reticulocyte system. The agmatine and polyamine analogs of the invention were tested in vitro (such as by test tube) and in vivo (such as by cell culture) using the antizyme dual luciferase frameshifting assay as described by Grentzmann, G., et al in RNA 4:479-486, 1998. This assay allows one to measure the efficiency of translational frameshifting on the human antizyme sequence. Briefly, two variations of the human antizyme sequence were cloned between the renilla (5') and firefly (3') luciferase reporter genes in pRL-SV40 (Promega) plasmids. One plasmid contained the wild type antizyme sequence which requires a +1 frameshift for complete translation, the other plasmid contained modified, in-frame antizyme (control) sequences. These plasmids are utilized to transiently or stably transfect human cell lines with either the wild type or in-frame antizyme sequence-containing plasmids. Renilla and firefly luciferase activity in each assay (with cells containing one of the two plasmids) is measured to account for polymerase fall-off or translational efficiency in the presence or absence of the agmatine and polyamine analogs of the invention. That ratio is used to normalize the firefly luciferase activity seen in the wild type sequence, compared to the in-frame control sequence. […] Agmatine and polyamine analogs of the invention were tested in vitro (such as by test tube) and in vivo (such as with cell lines) using the antizyme dual luciferase frameshifting assay as described by Grentzmann, G., et al in RNA 4:479-486, 1998. This assay allows one to measure the efficiency of translational frameshifting on the human antizyme sequence. Briefly, two variations of the human antizyme sequence were cloned between the renilla (5') and firefly (3') luciferase reporter genes in pRL-SV40 (Promega) plasmids. One plasmid contained the wild type antizyme sequence which requires a +1 frameshift for complete translation, the other plasmid contained modified, in-frame antizyme (control) sequences. These plasmids are utilized to transiently or stably transfect human cell lines with either the wild type or in-frame antizyme sequence-containing plasmids. Renilla and firefly luciferase activity in each assay (with cells containing one of the two plasmids) is measured to account for polymerase fall-off or translational efficiency in the presence or absence of the analogs of the invention. That ratio is used to normalize the firefly luciferase activity seen in the wild type sequence, compared to the in-frame control sequence.

[4] = MDA-MB-231, with DFMO, unit inferred, read-out: Cell Growth IC50+DFMO
[5] = MDA-MB-231, without DFMO, unit printed in b172 only, read-out: Cell Growth IC50

Molecule: NCCCNCCCCNCCCNS(=O)(=O)c1ccc2oc3ccccc3c2c1 [Analog 1041]
In vitro (human antizyme sequence [1]; antizyme induction at 0.06 mM): 15% at 0.06 mM | In vitro antizyme induction (human antizyme sequence [1]): demonstrated in vitro induction activity; also recorded: dramatic increase in in vitro induction activity in comparison with spermidine | IC50 [2, 4]: 53 µM | IC50 [2, 5]: 50 µM | IC50 ([2]; MDA-MB-231, Tables 1A and 1B, unit inferred, read-out: IC50): 12 µM | R value (R= IC50/ IC50+DFMO) ([2]; MDA-MB-231): ~1 | polyamine transport inhibition (polyamine transporter): fairly good transport inhibitor

Molecule: CC(=O)NCCCNCCCCNCCCN [Analog 1110, N^1-acetylspermine]
In vivo (cellular) (human antizyme sequence [3]; antizyme induction @ 10 mM): 30% @ 10 mM | In vivo (cellular) antizyme induction (human antizyme sequence [3]): demonstrated antizyme inducing activity | In vivo (cellular) antizyme induction (human antizyme sequence [3]; listed as ORI 1110): diminished ability to induce the expression of active antizyme in comparison with spermidine

Molecule: NCCCCNCCCCNCCCCN [Analog 1190]
In vivo (cellular) antizyme induction (human antizyme sequence [3]): negative; also recorded: no ability to induce antizyme

Molecule: NCCCNCc1ccc(CNCCCN)cc1 [Analog 1283]
In vivo (cellular) antizyme induction (human antizyme sequence [3]): positive; also recorded: increase in induction activity

Molecule: N=C(N)NOCC[C@H](N)C(=O)O [Analog 1284, L-canavanine]
In vitro antizyme induction (human antizyme sequence [1]): no activity

Molecule: NCCCON [Analog 1291, AOPA]
antizyme induction (human antizyme sequence [1]): no induction activity is observed

antizyme induction (human antizyme sequence [1]): no induction activity is observed
Molecule: NCCCCON [Analog 1292, AOBA]

Molecule: O=S(=O)(NCCCNCCCCNCCCNS(=O)(=O)c1ccc2oc3ccccc3c2c1)c1ccc2oc3ccccc3c2c1 [Analog 1293]
IC50 [2, 4]: 2 µM | IC50 [2, 5]: 2 µM | R value (R= IC50/ IC50+DFMO) ([2]; MDA-MB-231): ~1 | polyamine transport inhibition (polyamine transporter): fairly poor transport inhibitor

In vitro antizyme induction (human antizyme sequence [1]): induces antizyme
Molecule: CC(N)CCC(C)N (stereo not shown) [Analog 1351, 2,5-diaminohexane]

Molecule: NCCCC[C@H](N)C(=O)O [L-lysine, reference compound]
antizyme induction (human antizyme sequence [1]): does not induce antizyme activation

In vitro (human antizyme sequence [1]; antizyme induction @ 1 mM): 22% @ 1 mM
Molecule: NCCCCNCCCN [Spermidine, reference compound]
In vivo (cellular) (human antizyme sequence [3]; antizyme induction @ 16 mM): 35% @ 16 mM

Molecule: NCCCCCN [cadaverine, reference compound]
In vitro antizyme induction (human antizyme sequence [1]): no induction was observed; also recorded: no in vitro activity | In vivo (cellular) antizyme induction (human antizyme sequence [3]): only slightly less active than putrescine; also recorded: significant in vivo activity

In vitro antizyme induction (human antizyme sequence [1]): induced antizyme
Molecule: NCCCNCCCCNCCCN [spermine, reference compound]
In vivo (cellular) antizyme induction (human antizyme sequence [3]): induced antizyme

In vitro antizyme induction (human antizyme sequence [1]): diminished ability to induce antizyme
Molecule: L-Lys-spermine conjugate [Analog 1202]
In vivo (cellular) antizyme induction (human antizyme sequence [3]): positive; also recorded: diminished ability to induce antizyme

In vitro antizyme induction (human antizyme sequence [1]): retained the ability to induce antizyme
Molecule: L-Val-spermine [Analog 1157]

Molecule: α-dimethylspermine [Analog 1383]
In vivo (cellular) antizyme induction (human antizyme sequence [3]): positive; also recorded: to the same extent as spermine
